Common to all, as to assay type: cell-based
Assay [1] concerns the target T1, hMC4-R (Homo sapiens, UniProt P32245).
T1 construct: expressed in transfected cells; host or cells: CHO-K1
Briefly: cyclic AMP bioassay, hMC4-R.

In assay [2] the target is T2, hMC3-R (Homo sapiens, UniProt P41968).
T2 construct: expressed in transfected cells; host or cells: CHO-K1
The assay is described as follows: cyclic AMP bioassay, hMC3-R.

For assay [3], the target named is T3, hMC1-R (Homo sapiens, UniProt Q01726).
T3 construct: expressed in transfected cells; host or cells: CHO-K1
T3 sequence (Q01726 whole entry): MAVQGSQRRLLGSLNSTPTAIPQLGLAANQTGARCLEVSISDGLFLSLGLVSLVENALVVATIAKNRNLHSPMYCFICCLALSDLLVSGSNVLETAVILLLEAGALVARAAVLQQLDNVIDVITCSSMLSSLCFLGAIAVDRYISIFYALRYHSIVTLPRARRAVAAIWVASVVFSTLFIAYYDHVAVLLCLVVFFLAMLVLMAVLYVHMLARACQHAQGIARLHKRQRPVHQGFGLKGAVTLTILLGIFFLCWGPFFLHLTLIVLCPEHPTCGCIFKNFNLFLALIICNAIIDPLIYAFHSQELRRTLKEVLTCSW
The assay is described as follows: cyclic AMP bioassay, hMC1-R.
Description: Intracellular cyclic AMP (cAMP) levels were determined by an electrochemiluminescence (ECL) assay (Meso Scale Discovery®, Gaithersburg, Md.; referred to hereinafter as MSD). […] Transgenic CHO-K1 cells stably expressing hMC receptor subtypes 1, 3, 4 or 5 were dispensed at a density of approximately 7,000 cells/well in 384-well Multi-Arrays plates (MSD) containing integrated carbon electrodes and coated with anti-CAMP antibody. Increasing concentrations of the test compounds were added and the cells were incubated for approximately 40 minutes at approximately 37° C. […] At the end of the second incubation period read buffer (Tris-buffered solution containing an ECL co-reactant and Triton X-100 at ph 7.8) was added and the cAMP levels in the cell lysates were immediately determined by ECL detection with a Sector Imager 6000 Reader® (MSD). Data were analyzed using a computer-assisted non-linear regression analysis (XL fit; IDBS) and reported as either an EC50 value or a Kb value.
The Kb value reflects the potency of an antagonist and is determined by Schild analysis. In brief, concentration-response curves of an agonist are carried out in the presence of increasing concentrations of an antagonist. […] It is calculated by extrapolating the line on a Schild plot to zero on the y-axis.

Assay [4] addresses T4, hMC5-R (Homo sapiens, UniProt P33032).
T4 construct: expressed in transfected cells; host or cells: CHO-K1
The assay is described as follows: cyclic AMP bioassay, hMC5-R.

The mark [5] stands for this setting: Table 3A, cAMP in CHO-K1 cells, antagonist potency by Schild analysis, read-out: Kb hMC4-R.
The mark [6] stands for this setting: Table 3A, cAMP in CHO-K1 cells, antagonist potency by Schild analysis, read-out: Kb hMC3-R.

pEC50: −log10 of the molar value. Like-named read-outs stand apart in the source and are kept apart here.

T4 sequence (P33032 whole entry): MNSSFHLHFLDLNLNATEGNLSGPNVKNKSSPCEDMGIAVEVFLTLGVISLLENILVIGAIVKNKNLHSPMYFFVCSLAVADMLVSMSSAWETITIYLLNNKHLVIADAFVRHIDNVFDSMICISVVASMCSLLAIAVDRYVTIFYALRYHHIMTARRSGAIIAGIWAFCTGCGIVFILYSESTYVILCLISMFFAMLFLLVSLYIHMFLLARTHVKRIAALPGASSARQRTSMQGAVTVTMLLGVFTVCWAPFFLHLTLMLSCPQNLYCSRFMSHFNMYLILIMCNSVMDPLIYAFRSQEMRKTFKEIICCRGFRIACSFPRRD
T1 sequence (P32245 whole entry): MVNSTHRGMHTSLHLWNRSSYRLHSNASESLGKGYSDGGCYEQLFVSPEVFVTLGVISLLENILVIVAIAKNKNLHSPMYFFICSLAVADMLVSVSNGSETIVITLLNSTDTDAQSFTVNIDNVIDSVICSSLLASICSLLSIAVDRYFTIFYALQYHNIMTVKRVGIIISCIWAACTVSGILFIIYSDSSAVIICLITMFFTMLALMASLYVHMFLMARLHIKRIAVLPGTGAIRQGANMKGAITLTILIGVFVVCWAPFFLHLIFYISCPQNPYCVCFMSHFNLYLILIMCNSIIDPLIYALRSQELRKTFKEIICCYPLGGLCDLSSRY
T2 sequence (P41968 whole entry): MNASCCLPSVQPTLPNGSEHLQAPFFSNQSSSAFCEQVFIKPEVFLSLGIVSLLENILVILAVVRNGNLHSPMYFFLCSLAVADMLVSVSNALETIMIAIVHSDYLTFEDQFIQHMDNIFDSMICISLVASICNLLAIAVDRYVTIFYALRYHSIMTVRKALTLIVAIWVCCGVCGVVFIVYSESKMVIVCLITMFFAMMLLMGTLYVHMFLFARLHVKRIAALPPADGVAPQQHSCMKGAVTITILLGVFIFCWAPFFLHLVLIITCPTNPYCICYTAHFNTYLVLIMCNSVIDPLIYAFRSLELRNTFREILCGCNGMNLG

With `CCCC[C@H](NC(C)=O)C(=O)N[C@H]1CC(=O)NCCCC[C@@H](C(=O)N2CCC[C@H]2C(=O)N2CCC[C@H]2C(=O)N[C@@H](CCCCN)C(=O)N[C@@H](CC(=O)O)C(=O)N[C@@H](Cc2ccc(O)cc2)C(=O)NCC(=O)N[C@@H](CCCNC(=N)N)C(=O)N[C@@H](CCCCN)C(=O)N[C@@H](CCCCN)C(=O)N[C@@H](CCCNC(=N)N)C(=O)N[C@@H](CCCNC(=N)N)C(=O)N[C@@H](CCC(N)=O)C(=O)N[C@@H](CCCNC(=N)N)C(=O)N[C@@H](CCCNC(=N)N)C(=O)N[C@@H](CCCNC(=N)N)C(N)=O)NC(=O)[C@H](Cc2c[nH]c3ccccc23)NC(=O)[C@H](CCCNC(=N)N)NC(=O)[C@@H](Cc2ccc3ccccc3c2)NC(=O)[C@H](Cc2c[nH]cn2)NC1=O`, the Kb in assay [1] (setting [5]) amounted to 22.8 nM; in assay [2] (setting [6]), 14.1 nM.

On to `CCCC[C@H](NC(C)=O)C(=O)N[C@H]1CC(=O)NCCCC[C@@H](C(=O)NCCC(=O)N[C@@H](Cc2ccc(O)cc2)C(=O)NCC(=O)N[C@@H](CCCNC(=N)N)C(=O)N[C@@H](CCCCN)C(=O)N[C@@H](CCCCN)C(=O)N[C@@H](CCCNC(=N)N)C(=O)N[C@@H](CCCNC(=N)N)C(=O)N[C@@H](CCC(N)=O)C(=O)N[C@@H](CCCNC(=N)N)C(=O)N[C@@H](CCCNC(=N)N)C(=O)N[C@@H](CCCNC(=N)N)C(N)=O)NC(=O)[C@H](Cc2c[nH]c3ccccc23)NC(=O)[C@H](CCCNC(=N)N)NC(=O)[C@@H](Cc2ccc3ccccc3c2)NC(=O)[C@H](Cc2c[nH]cn2)NC1=O`, for which the Kb in assay [1] (setting [5]) was 4.07 nM; in assay [2] (setting [6]), 220 nM.

On to `CCCC[C@H](NC(C)=O)C(=O)N[C@H]1CSSC[C@@H](C(=O)NCCC(=O)N[C@@H](Cc2ccc(O)cc2)C(=O)NCC(=O)N[C@@H](CCCNC(=N)N)C(=O)N[C@@H](CCCNC(=N)N)C(=O)N[C@@H](CCCNC(=N)N)C(=O)N[C@@H](CCCNC(=N)N)C(=O)N[C@@H](CCCNC(=N)N)C(=O)N[C@@H](CCC(N)=O)C(=O)N[C@@H](CCCNC(=N)N)C(=O)N[C@@H](CCCNC(=N)N)C(=O)N[C@@H](CCCNC(=N)N)C(N)=O)NC(=O)[C@H](Cc2c[nH]c3ccccc23)NC(=O)[C@H](CCCNC(=N)N)NC(=O)[C@@H](Cc2ccccc2)NC(=O)[C@H](Cc2c[nH]cn2)NC(=O)[C@@H](C)NC1=O`, for which the figures for the Kb in assay [1] and in assay [2] were 0.843 nM and 10.5 nM, respectively. Moreover, the pEC50 – broadly, the EC50 on a negative log10 scale, so that one unit is a factor of ten – in assay [3] was 8.10; in assay [4], 5.31.

For the compound `CC(=O)N[C@H]1CSSC[C@@H](C(=O)N2CCC[C@H]2C(=O)N2CCC[C@H]2C(=O)N[C@@H](CCCCN)C(=O)N[C@@H](CC(=O)O)C(=O)NCCC(=O)N[C@@H](Cc2ccc(O)cc2)C(=O)NCC(=O)N[C@@H](CCCNC(=N)N)C(=O)N[C@@H](CCCCN)C(=O)N[C@@H](CCCCN)C(=O)N[C@@H](CCCNC(=N)N)C(=O)N[C@@H](CCCNC(=N)N)C(=O)N[C@@H](CCC(N)=O)C(=O)N[C@@H](CCCNC(=N)N)C(=O)N[C@@H](CCCNC(=N)N)C(=O)N[C@@H](CCCNC(=N)N)C(N)=O)NC(=O)[C@H](C)NC(=O)[C@H](Cc2ccc3ccccc3c2)NC(=O)[C@H](CCCNC(=N)N)NC(=O)[C@@H](Cc2ccc3ccccc3c2)NC(=O)[C@H](Cc2c[nH]cn2)NC(=O)[C@H](CCC(=O)O)NC1=O`, the figures for the Kb in assay [1] and in assay [2] were 7.37 nM and 25.6 nM, respectively. For the same compound, the pEC50 in assay [3] is 7.53; in assay [4], 7.08.

As for `CC(=O)N[C@H]1CSSC[C@@H](C(=O)N2CCC[C@H]2C(=O)N2CCC[C@H]2C(=O)N[C@@H](CCCCN)C(=O)N[C@@H](CC(=O)O)C(=O)NCCC(=O)NCC(=O)N[C@@H](CCCNC(=N)N)C(=O)N[C@@H](CCCNC(=N)N)C(=O)N[C@@H](CCCCN)C(=O)N[C@@H](CCCNC(=N)N)C(=O)N[C@@H](CCCNC(=N)N)C(=O)N[C@@H](CCC(N)=O)C(=O)N[C@@H](CCCNC(=N)N)C(=O)N[C@@H](CCCNC(=N)N)C(=O)N[C@@H](CCCNC(=N)N)C(N)=O)NC(=O)[C@H](C)NC(=O)[C@H](Cc2ccc3ccccc3c2)NC(=O)[C@H](CCCNC(=N)N)NC(=O)[C@@H](Cc2ccc3ccccc3c2)NC(=O)[C@H](Cc2c[nH]cn2)NC(=O)[C@H](CCC(=O)O)NC1=O`, the Kb in assay [1] and in assay [2] was 12.7 nM throughout. Moreover, the results for the pEC50 in assay [3] and in assay [4] were 7.34 and 6.79, respectively.

With `CC(=O)N[C@H]1CSSC[C@@H](C(=O)N2CCC[C@H]2C(=O)N2CCC[C@H]2C(=O)N[C@@H](CCCCN)C(=O)N[C@@H](CC(=O)O)C(=O)NCCC(=O)N[C@@H](Cc2ccc(O)cc2)C(=O)NCC(=O)N[C@@H](CCCNC(=N)N)C(=O)N[C@@H](CCCCN)C(=O)N[C@@H](CCCCN)C(=O)N[C@@H](CCCNC(=N)N)C(=O)N[C@@H](CCCNC(=N)N)C(=O)N[C@@H](CCCNC(=N)N)C(=O)N[C@@H](CCCNC(=N)N)C(=O)N[C@@H](CCCNC(=N)N)C(=O)N[C@@H](CCC(N)=O)C(N)=O)NC(=O)[C@H](C)NC(=O)[C@H](Cc2c[nH]c3ccccc23)NC(=O)[C@H](CCCNC(=N)N)NC(=O)[C@@H](Cc2ccc3ccccc3c2)NC(=O)[C@H](Cc2c[nH]cn2)NC(=O)[C@H](CCC(=O)O)NC1=O`, the Kb came out at 7.61 nM in assay [1] and 12.2 nM in assay [2]. Further, the pEC50 in assay [3] is 8.12; in assay [4] it was 7.29.

As for `CC(=O)N[C@H]1CSSC[C@@H](C(=O)N2CCC[C@H]2C(=O)N2CCC[C@H]2C(=O)N[C@@H](CCCCN)C(=O)N[C@@H](CC(=O)O)C(=O)NCCC(=O)N[C@@H](Cc2ccc(O)cc2)C(=O)NCC(=O)N[C@@H](CCCNC(=N)N)C(=O)N[C@@H](CCCCN)C(=O)N[C@@H](CCCCN)C(=O)N[C@@H](CCCNC(=N)N)C(=O)N[C@@H](CCC(N)=O)C(=O)N[C@@H](CCCNC(=N)N)C(=O)N[C@@H](CCCNC(=N)N)C(=O)N[C@@H](CCCNC(=N)N)C(=O)N[C@@H](CCCNC(=N)N)C(N)=O)NC(=O)[C@H](C)NC(=O)[C@H](Cc2c[nH]c3ccccc23)NC(=O)[C@H](CCCNC(=N)N)NC(=O)[C@@H](Cc2ccc3ccccc3c2)NC(=O)[C@H](Cc2c[nH]cn2)NC(=O)[C@H](CCC(=O)O)NC1=O`, the Kb in assay [1] came out at 4.52 nM; in assay [2] it was 14.6 nM. Moreover, the pEC50 in assay [3] is 7.82; in assay [4], 7.43.

As to `CC(=O)N[C@H]1CSSC[C@@H](C(=O)N2CCC[C@H]2C(=O)N2CCC[C@H]2C(=O)N[C@@H](CCCCN)C(=O)N[C@@H](CC(=O)O)C(=O)NCCOCCOCC(=O)N[C@@H](Cc2ccc(O)cc2)C(=O)NCC(=O)N[C@@H](CCCNC(=N)N)C(=O)N[C@@H](CCCCN)C(=O)N[C@@H](CCCCN)C(=O)N[C@@H](CCCNC(=N)N)C(=O)N[C@@H](CCCNC(=N)N)C(=O)N[C@@H](CCC(N)=O)C(=O)N[C@@H](CCCNC(=N)N)C(=O)N[C@@H](CCCNC(=N)N)C(=O)N[C@@H](CCCNC(=N)N)C(N)=O)NC(=O)CNC(=O)[C@H](Cc2c[nH]c3ccccc23)NC(=O)[C@H](CCCNC(=N)N)NC(=O)[C@@H](Cc2ccc3ccccc3c2)NC(=O)[C@H](Cc2c[nH]cn2)NC(=O)[C@H](CCC(=O)O)NC1=O`, the Kb in assay [1] (setting [5]) is 1.49 nM; in assay [2] (setting [6]), 17.7 nM.

With `CC(=O)N[C@H]1CSSC[C@@H](C(=O)N2CCC[C@H]2C(=O)N2CCC[C@H]2C(=O)N[C@@H](CCCCN)C(=O)N[C@@H](CC(=O)O)C(=O)N[C@@H](Cc2ccc(O)cc2)C(=O)NCC(=O)N[C@@H](CCCNC(=N)N)C(=O)N[C@@H](CCCCN)C(=O)N[C@@H](CCCCN)C(=O)N[C@@H](CCCNC(=N)N)C(=O)N[C@@H](CCCNC(=N)N)C(=O)N[C@@H](CCC(N)=O)C(=O)N[C@@H](CCCNC(=N)N)C(=O)N[C@@H](CCCNC(=N)N)C(=O)N[C@@H](CCCNC(=N)N)C(N)=O)NC(=O)CNC(=O)[C@H](Cc2c[nH]c3ccccc23)NC(=O)[C@H](CCCNC(=N)N)NC(=O)[C@@H](Cc2ccc3ccccc3c2)NC(=O)[C@H](Cc2c[nH]cn2)NC(=O)[C@H](CCC(=O)O)NC1=O`, the Kb came to 26 nM in assay [1] (setting [5]) and 233 nM in assay [2] (setting [6]).

Turning to `CCCC[C@H](N)C(=O)N[C@H]1CC(=O)NCCCC[C@@H](C(=O)NCCC(=O)N[C@@H](Cc2ccc(O)cc2)C(=O)NCC(=O)N[C@@H](CCCNC(=N)N)C(=O)N[C@@H](CCCCN)C(=O)N[C@@H](CCCCN)C(=O)N[C@@H](CCCNC(=N)N)C(=O)N[C@@H](CCCNC(=N)N)C(=O)N[C@@H](CCC(N)=O)C(=O)N[C@@H](CCCNC(=N)N)C(=O)N[C@@H](CCCNC(=N)N)C(=O)N[C@@H](CCCNC(=N)N)C(N)=O)NC(=O)[C@H](Cc2c[nH]c3ccccc23)NC(=O)[C@H](CCCNC(=N)N)NC(=O)[C@@H](Cc2ccc3ccccc3c2)NC(=O)[C@H](Cc2c[nH]cn2)NC1=O`, the Kb in assay [1] (setting [5]) is 18.5 nM; in assay [2] (setting [6]) it was 207 nM.

On to `CCCC[C@H](NC(=O)COCCOCCNC(=O)[C@H](CCCNC(=N)N)NC(=O)[C@H](CCCNC(=N)N)NC(=O)[C@H](CCCNC(=N)N)NC(=O)[C@H](CCC(N)=O)NC(=O)[C@H](CCCNC(=N)N)NC(=O)[C@H](CCCNC(=N)N)NC(=O)[C@H](CCCCN)NC(=O)[C@H](CCCCN)NC(=O)[C@H](CCCNC(=N)N)NC(=O)CNC(=O)[C@@H](N)Cc1ccc(O)cc1)C(=O)N[C@H]1CC(=O)NCCCC[C@@H](C(N)=O)NC(=O)[C@H](Cc2c[nH]c3ccccc23)NC(=O)[C@H](CCCNC(=N)N)NC(=O)[C@@H](Cc2ccc3ccccc3c2)NC(=O)[C@H](Cc2c[nH]cn2)NC1=O`, for which the Kb in assay [1] (setting [5]) amounted to 16.8 nM; in assay [2] (setting [6]), 395 nM.

Regarding `CCCC[C@H](NC(=O)[C@H](CCCNC(=N)N)NC(=O)[C@H](CCCNC(=N)N)NC(=O)[C@H](CCCNC(=N)N)NC(=O)[C@H](CCC(N)=O)NC(=O)[C@H](CCCNC(=N)N)NC(=O)[C@H](CCCNC(=N)N)NC(=O)[C@H](CCCCN)NC(=O)[C@H](CCCCN)NC(=O)[C@H](CCCNC(=N)N)NC(=O)CNC(=O)[C@@H](N)Cc1ccc(O)cc1)C(=O)N[C@H]1CC(=O)NCCCC[C@@H](C(N)=O)NC(=O)[C@H](Cc2c[nH]c3ccccc23)NC(=O)[C@H](CCCNC(=N)N)NC(=O)[C@@H](Cc2ccc3ccccc3c2)NC(=O)[C@H](Cc2c[nH]cn2)NC1=O`, the Kb is 105 nM in assay [1] (setting [5]) and 4500 nM in assay [2] (setting [6]).

(Values after patent publication US20090232838A1, “Ligands of melanocortin receptors” (priority 2005, published 2009).)
